According to ChEMBL document CHEMBL1667735, “Human cytochrome P450 liability studies of trans-dihydronarciclasine: a readily available, potent, and selective cancer cell growth inhibitor” (J Nat Prod, 2011):

Tests used:
[1] = biological target: T1, Aromatase (Homo sapiens, UniProt P11511); assay: Inhibition of human CYP19 at 10 uM; format: ADME
T1 sequence (P11511 whole entry): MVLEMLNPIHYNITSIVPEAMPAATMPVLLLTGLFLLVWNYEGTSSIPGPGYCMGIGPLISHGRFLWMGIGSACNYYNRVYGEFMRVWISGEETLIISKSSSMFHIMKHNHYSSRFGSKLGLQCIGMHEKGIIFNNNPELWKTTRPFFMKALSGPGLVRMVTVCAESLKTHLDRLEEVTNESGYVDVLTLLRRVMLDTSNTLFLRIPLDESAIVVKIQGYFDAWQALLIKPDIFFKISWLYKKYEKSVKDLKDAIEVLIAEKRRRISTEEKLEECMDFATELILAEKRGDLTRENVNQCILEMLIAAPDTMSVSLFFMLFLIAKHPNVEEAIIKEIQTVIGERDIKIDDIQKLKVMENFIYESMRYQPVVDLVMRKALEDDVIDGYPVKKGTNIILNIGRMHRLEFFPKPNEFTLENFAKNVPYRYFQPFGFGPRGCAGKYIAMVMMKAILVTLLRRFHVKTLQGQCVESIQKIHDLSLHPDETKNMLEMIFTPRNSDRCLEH

[2] = biological target: T2, Cytochrome P450 1A1 (Homo sapiens, UniProt P04798); assay: Inhibition of human CYP1A1 at 10 uM; format: ADME
T2 sequence (P04798 whole entry): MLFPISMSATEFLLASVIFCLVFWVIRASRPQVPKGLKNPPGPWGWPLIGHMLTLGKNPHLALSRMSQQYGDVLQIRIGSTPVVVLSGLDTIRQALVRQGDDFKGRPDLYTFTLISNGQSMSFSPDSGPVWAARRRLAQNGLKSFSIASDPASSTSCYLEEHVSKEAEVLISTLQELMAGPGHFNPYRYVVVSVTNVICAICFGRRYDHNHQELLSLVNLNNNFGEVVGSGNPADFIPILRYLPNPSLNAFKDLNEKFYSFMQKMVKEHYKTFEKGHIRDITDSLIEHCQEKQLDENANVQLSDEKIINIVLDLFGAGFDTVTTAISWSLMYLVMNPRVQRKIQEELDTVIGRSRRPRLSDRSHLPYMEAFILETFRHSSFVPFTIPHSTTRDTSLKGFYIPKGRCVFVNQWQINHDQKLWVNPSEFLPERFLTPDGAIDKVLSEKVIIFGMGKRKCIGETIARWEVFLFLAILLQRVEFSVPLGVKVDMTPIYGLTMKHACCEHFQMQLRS

For `O=C1N[C@H]2[C@H](O)[C@H](O)[C@@H](O)C[C@@H]2c2cc3c(c(O)c21)OCO3`, the “inhibition (INH)” value [1] was “Not Active” and the “inhibition (INH)” value [2] was “Not Active”.
